10 compounds from US20200039939A1, “QUINOLINE AMINES USEFUL AS CYTOPROTECTIVE AGENTS” (priority 2015, published 2020) can be followed below.

One assay deals with T1, SERCA (Homo sapiens, UniProt P16615).
T1 construct: microsomal preparations from HEK 293 cells; endogenous in cells; host or cells: HEK 293 cells (microsomal preparation)
As to the kind of experiment: Ca-ATPase assay (NADH-linked, enzyme-coupled ATPase assay). The settings on record: microsomal preparations from HEK 293 cells, Vmax from Hill fit of ATPase calcium-dependence, relative to controls. The class given is biochemical. As for the experimental part:
A Ca-ATPase assay was performed using microsomal preparations from HEK 293 cells at a series of calcium concentrations corresponding to the physiological range, relative to controls. The ATP hydrolysis rate was measured over a range of calcium concentrations in the presence of test compounds using an NADH-linked, enzyme-coupled ATPase assay adapted for 96-well microplates, with Vmax determined by fitting the ATPase calcium-dependence to the Hill function. Each well contained 2 μg or 7 μg of SR vesicles (optimized for skeletal or cardiac SR, respectively), 50 mM MOPS (pH 7.0), 100 mM KCl, 5 mM MgCl2, 1 mM EGTA, 0.2 mM NADH, 1 mM phosphoenol pyruvate, 5 IU pyruvate kinase, 5 IU lactate dehydrogenase, and 3.5 μg/mL A23187 (a calcium ionophore). CaCl2 was added to set free [Ca^2+] to the specific values. The assay was started upon addition of ATP at a final concentration of 5 mM, and read in a SpectraMax Plus microplate spectrophotometer. The results are summarized in Table 4, where A represents an increase in SERCA Vmax greater than or equal to 50% and B represents a value greater than 10% and less than 50%.

In assay [1] the test system is Human embryonic kidney (HEK293) cells / mouse neuroblastoma (N2a) cells. As to the kind of experiment: Cell rescue assay: protection against thapsigargin (TG)-induced cell-death (ALAMARBLUE). The settings on record: compound 20 μM, 2 hrs before thapsigargin (15 μM HEK293, 1 μM N2a), 24 hrs, viability as % RFU of control, read-out: Cell Survival %. The assay is classed as cell-based. The method, then: Protection against Thapsigargin (TG)-induced Cell-death. Human embryonic kidney (HEK293) cells were grown in Dulbecco's Modified Eagle's Medium (DMEM) with 10% FBS and 1% antibiotic antimycotic solution (ABAM). Mouse neuroblastoma (N2a) cells were grown in 1:1 DMEM:OPTI-MEM® with 5% FBS and 1% ABAM. All cells were grown in 10% CO2 in a humidified environment of the incubator. Cells grown in 96-well plates were exposed to a test compound (20 μM) for 2 hrs before addition of thapsigargin (15 μM for HEK293 cells and 1 μM for N2a cells) to induce ER stress. After incubation in cell-culture incubator for 24 hrs, ALAMARBLUE® regent (10% v/v) was added to the wells. Fluorescence reading was taken 2 hrs after the addition of the ALAMARBLUE® regent. Cell-viability was calculated as a percentage of relative fluorescence unit (RFU) compared to control. […] The biological results are summarized in Table 2, where each compound was tested at 20 μM and where A represents a viability greater than 50%, B represents a viability greater than 10% and less than 50%, C represents a value below 10%.
A general note: Resazurin is reduced to fluorescent resorufin, in cell work by metabolically active cells.

The next assay has as its system CSM14.1 neuronal cells. The experiment in a line: Cell survival assay (thapsigargin-treated CSM14.1 neuronal cells, CELLTITER-GLO). The assay is classed as cell-based. The settings on record: 2 hrs compound pre-incubation, about 15 μM thapsigargin, overnight, luminescence. The method, then:
CSM14.1 neuronal cells were maintained in Complete Medium at 32° C.; wherein the Complete Medium contained Dulbecco's modified eagle medium (DMEM) with 10% fetal bovine serum (FSB), 1% L-glutamine, 100 IU/mL penicillin, and 100 μg/mL streptomycin. The cells were recovered from cultures by trypsinization and then seeded in 384 well plates (Greiner #781098) at a concentration of 1,000 cells/well in 20 μL of DMEM Assay Medium, wherein the DMEM Assay Medium contained 2% FBS, 100 IU/mL penicillin, and 100 μg/mL streptomycin. Seeding was performed using a MultiDrop Combi reagent broadcaster. The plates were incubated overnight at 32° C. A test compound was prepared by 2-fold serial dilution in 100% DMSO using a BIOMEK® 2000 liquid handler (Beckman Coulter). A dose-response curve containing 10 concentrations of the test compound was obtained. Using a BIOMEK® FX liquid handler (Beckman Coulter), 2.5 μL of the test compound was transferred from the 100% DMSO serial dilution plate to an intermediate plate containing 47.5 μL of DMEM Assay Medium containing 2% FBS, 100 IU/mL penicillin, and 100 μg/mL streptomycin and mixed. To reduce or eliminate the interference from the compound's precipitation, 6 μL of the diluted compound was immediately transferred to the assay plate to achieve a high compound concentration of 100 µM in 99% DMEM Assay Medium and 1% DMSO. After the assay plates were incubated for 2 hrs, 4 μL of 112.5 μM thapsigargin (TG) (DMSO stock diluted into Assay TC Medium) was dispensed into each testing well with a MultiDrop Combi reagent broadcaster for a final concentration of about 15 μM TG. The tissue culture media (4 μL) containing vehicle only was transferred manually to each control cell using a 16 channel electronic pipette. After the plates were incubated overnight (about 16 to 24 hrs), CELLTITER-GLO® (Promega) (16 μL) was added to all wells and luminescence was measured. High luminescence indicates cell survival. The biological results are summarized in Table 1 where A represents a cell viability EC50 less than 10 μM and B represents a value greater than 10 μM and less than 20 μM.
In general terms: Cellular ATP, detected with luciferase, serves as a proxy for viable cell number.

In a further assay the test system is Ob/ob mice. The experiment in a line: Effect of a SERCA agonist on the level of blood glucose. The settings on record: Mus musculus, ip, 96 h, 50 mg/kg i.p. once a day for 5 days, fasting glucose at baseline and 4 days after administration, read-out: Glucose level reduction. The assay is classed as in vivo. As for the experimental part:
Ob/ob mice (10 weeks old, n=7) were intraperitoneally (i.p.) injected with 100 μL of a solution containing 0 (vehicle) or 50 mg/kg of a test compound once a day for a total of 5 days. Fasting glucose was measured at baseline and 4 days after the administration of the test compound. Glucose levels were measured in blood samples drawn from the tail vein using a handheld glucose sensor. Compound effects on blood glucose are shown in Table 5 where A represents a 10-20% reduction in blood glucose, B represents a 21-30% reduction in blood glucose, and C represents a greater than 30% reduction in blood glucose levels.

For another assay, the system named is Human SH-SY5Y cells. The experiment in a line: Cell rescue assay: protection against amyloid (AB1-42)-induced cell toxicity. The assay is classed as cell-based. As to conditions: 96 h, 7.5 uM compound (final), AB1-42 at 10 uM, 4 days, OD 490 nm, read-out: Cell Survival % (cell rescue). As for the experimental part:
Protection against 1-amyloid-induced cell toxicity. Chonpathompikunlert et al. Eu. J. Pharmacol. 2011, 650, 544-549. Human SH-SY5Y cells are suspended in media containing 2% FBS and 2× Gentamicin. Transfer 100 ul/well culture to 96-well plate (20,000 cells/well; passage #5) and incubate overnight. Prepare compound samples at 30 uM. Add 50 ul of the samples to the cells [[…]] and incubate 3 hours. Make stock of 40 uM AB1-42 peptide in assay media. Transfer 50 ul/well to cells/compounds in assay plate. The final assay volume is 200 ul/well, containing 2% FBS, 2× Gentamicin, 7.5 uM compound and AB1-42 at 10 uM. Incubate for 4 days then add 20 ul of Promega Substrate Cell Titer 96 Aqueous One Solution Reagent to each well. Incubate 37° C. and read OD at 490 nm. The results are summarized in Table 3, where A represents a value greater than 40% cell rescue, B represents a value greater than 10% and less than or equal to 40% cell rescue, and C represents a value greater than 1% and less than or equal to 10% cell rescue.

pEC50: −log10 of the molar value.

T1 sequence (P16615 whole entry): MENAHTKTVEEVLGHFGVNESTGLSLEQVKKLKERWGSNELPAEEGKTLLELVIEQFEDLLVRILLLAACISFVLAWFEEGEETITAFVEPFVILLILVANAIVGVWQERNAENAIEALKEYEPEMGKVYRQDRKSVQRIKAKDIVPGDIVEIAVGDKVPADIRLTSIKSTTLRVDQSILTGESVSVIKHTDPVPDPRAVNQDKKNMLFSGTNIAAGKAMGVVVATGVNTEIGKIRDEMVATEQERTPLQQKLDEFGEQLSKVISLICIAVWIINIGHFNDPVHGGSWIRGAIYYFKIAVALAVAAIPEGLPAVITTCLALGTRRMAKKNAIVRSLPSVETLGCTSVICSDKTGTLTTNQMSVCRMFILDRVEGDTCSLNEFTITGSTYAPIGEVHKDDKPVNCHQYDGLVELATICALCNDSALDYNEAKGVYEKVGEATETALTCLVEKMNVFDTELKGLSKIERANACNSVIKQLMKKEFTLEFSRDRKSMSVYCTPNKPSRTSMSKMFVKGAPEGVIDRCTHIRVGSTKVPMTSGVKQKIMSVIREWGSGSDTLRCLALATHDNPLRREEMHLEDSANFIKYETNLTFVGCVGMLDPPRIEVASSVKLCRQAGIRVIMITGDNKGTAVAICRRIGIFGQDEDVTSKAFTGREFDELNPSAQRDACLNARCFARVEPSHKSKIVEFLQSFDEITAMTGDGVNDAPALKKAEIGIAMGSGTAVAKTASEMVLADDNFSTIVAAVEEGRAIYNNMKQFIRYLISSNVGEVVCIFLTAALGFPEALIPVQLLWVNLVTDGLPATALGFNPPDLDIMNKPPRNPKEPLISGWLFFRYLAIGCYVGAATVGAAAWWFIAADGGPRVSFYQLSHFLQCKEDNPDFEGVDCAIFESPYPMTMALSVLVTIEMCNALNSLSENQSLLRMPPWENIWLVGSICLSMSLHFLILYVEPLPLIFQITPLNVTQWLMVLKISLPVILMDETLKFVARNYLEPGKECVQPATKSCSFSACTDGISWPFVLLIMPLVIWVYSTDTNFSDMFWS

Turning to `Cc1ccc2cccc(NCc3ccc(OC(C)C)cc3)c2n1` [C1, N-(4-Isopropoxybenzyl)-2-methylquinolin-8-amine], the “SERCA Vmax Increase” value at SERCA is “B (B represents a value greater than 10% and less than 50%)”. Further, in assay [1], the viability at 20 µM was > 50%. Further, the pEC50 (commonly the EC50 on a negative log10 scale, so that one unit is a factor of ten) in the assay on CSM14.1 neuronal cells is > 5.00. In the assay on Ob/ob mice, the inhibition in vivo at 50 mg/kg is > 30%. In addition, the viability at 7.5 µM with Human SH-SY5Y cells is > 40%.
As to `Cc1ccc2cccc(NCc3ccc(C#N)cc3)c2n1` [C7, N-(4-Cyanobenzyl)-2-methylquinolin-8-amine], at SERCA, the “SERCA Vmax Increase” value was “B (B represents a value greater than 10% and less than 50%)”. Besides, in assay [1], the viability at 20 µM was < 10%. Besides, the pEC50 in the assay on CSM14.1 neuronal cells was 4.70 to 5.00. For the same compound, in the assay with Ob/ob mice, the inhibition in vivo at 50 mg/kg lay within 10 to 20%. For the same compound, the viability at 7.5 µM in the assay on Human SH-SY5Y cells was 10 to 40%.
As to `COc1c(C)cccc1CNc1cccc2ccc(C)nc12` [C5, N-(2-Methoxy-3-methyl)-2-methylquinolin-8-amine], the “SERCA Vmax Increase” value on SERCA is given as “A (A represents an increase in SERCA Vmax greater than or equal to 50%)”. In assay [1], the viability at 20 µM is 10 to 50%. In the assay with CSM14.1 neuronal cells, this compound gave a pEC50 of 4.70 to 5.00. Besides, the inhibition in vivo at 50 mg/kg in the assay with Ob/ob mice fell in the range of 21 to 30%. Further, in the assay with Human SH-SY5Y cells, the viability at 7.5 µM was in the range of 1 to 10%.
On to `Cc1ccc2cccc(NCc3ccc(Br)s3)c2n1` [C3, N-((5-Bromothiophen-2-yl)methyl)-2-methylquinolin-8-amine], for which, on SERCA, the “SERCA Vmax Increase” value is “B (B represents a value greater than 10% and less than 50%)”. Besides, in assay [1], the viability at 20 µM is > 50%. Moreover, the pEC50 in the assay on CSM14.1 neuronal cells is > 5.00. Further, in the assay with Ob/ob mice, the inhibition in vivo at 50 mg/kg was 21 to 30%. The viability at 7.5 µM with Human SH-SY5Y cells was > 40%.
For the compound `Cc1ccc2cccc(NCc3ccc(C)o3)c2n1` [C9, N-((5-Methylfuran-2-yl)methyl)-2-methylquinolin-8-amine], the “SERCA Vmax Increase” value at SERCA is “B (B represents a value greater than 10% and less than 50%)”. The viability at 20 µM in assay [1] was < 10%. This compound also showed a pEC50 in the assay on CSM14.1 neuronal cells of 4.70 to 5.00. The inhibition in vivo at 50 mg/kg in the assay on Ob/ob mice was in the range of 21 to 30%. The viability at 7.5 µM with Human SH-SY5Y cells lay within 1 to 10%.
With `Cc1ccc2cccc(NCc3ccc(C)s3)c2n1` [C8, N-((5-Methylthiophen-2-yl)methyl)-2-methylquinolin-8-amine], the “SERCA Vmax Increase” value at SERCA was “B (B represents a value greater than 10% and less than 50%)”. Further, the viability at 20 µM in assay [1] fell in the range of 10 to 50%. In addition, the pEC50 with CSM14.1 neuronal cells was > 5.00. Besides, the inhibition in vivo at 50 mg/kg with Ob/ob mice was > 30%. For the same compound, the viability at 7.5 µM with Human SH-SY5Y cells is > 40%.
Turning to `Cc1ccc2cccc(NCc3cc(Br)cs3)c2n1` [C2, N-((4-Bromothiophen-2-yl)methyl)-2-methylquinolin-8-amine], the “SERCA Vmax Increase” value at SERCA was “B (B represents a value greater than 10% and less than 50%)”. For the same compound, the viability at 20 µM in assay [1] was 10 to 50%. For the same compound, the pEC50 in the assay with CSM14.1 neuronal cells is > 5.00. Also, the inhibition in vivo at 50 mg/kg in the assay on Ob/ob mice lay within 21 to 30%. The viability at 7.5 µM in the assay on Human SH-SY5Y cells lay within 10 to 40%.
As for `Cc1ccc2cccc(NCc3ccc(Cl)cc3)c2n1` [C4, N-(4-Chlorobenzyl)-2-methylquinolin-8-amine], the “SERCA Vmax Increase” value on SERCA was “A (A represents an increase in SERCA Vmax greater than or equal to 50%)”. In addition, the viability at 20 µM in assay [1] was > 50%. The pEC50 in the assay on CSM14.1 neuronal cells was > 5.00. Besides, in the assay on Ob/ob mice, the inhibition in vivo at 50 mg/kg lay in the range of 10 to 20%. Besides, in the assay on Human SH-SY5Y cells, the viability at 7.5 µM was > 40%.
Take `Cc1ccc2cccc(NCc3ccc(C(F)(F)F)cc3)c2n1` [C6, N-(4-Trifluoromethylbenzyl)-2-methylquinolin-8-amine]: the “SERCA Vmax Increase” value at SERCA is “B (B represents a value greater than 10% and less than 50%)”. In addition, in assay [1], the viability at 20 µM is > 50%. In the assay on CSM14.1 neuronal cells, the pEC50 is > 5.00. Further, in the assay on Ob/ob mice, the inhibition in vivo at 50 mg/kg was 10 to 20%. The viability at 7.5 µM with Human SH-SY5Y cells is > 40%.
Turning to `Cc1ccc2cccc(NCc3cc4ccccc4s3)c2n1` [C10, N-(Benzo[b]thiophen-2-ylmethyl)-2-methylquinolin-8-amine], the “SERCA Vmax Increase” value at SERCA is “B (B represents a value greater than 10% and less than 50%)”. In addition, the viability at 20 µM in assay [1] fell in the range of 10 to 50%. The pEC50 with CSM14.1 neuronal cells was 4.70 to 5.00. Moreover, the inhibition in vivo at 50 mg/kg with Ob/ob mice is 21 to 30%. Also, the viability at 7.5 µM in the assay with Human SH-SY5Y cells lay in the range of 10 to 40%.
